Measured values taken from paper PMC7734281, “Functionalized Oxoindolin Hydrazine Carbothioamide Derivatives as Highly Potent Inhibitors of Nucleoside Triphosphate Diphosphohydrolases” (Frontiers in Pharmacology, 2020).
“Also recorded” adds a separate entry of the source.

Key:
h-NTPDase2 = molecular target: T1, h-NTPDase2 (Homo sapiens, UniProt Q9Y5L3); assay: h-NTPDase2 inhibition, malachite green assay; format: biochemical; conditions: Lineweaver-Burk plot
T1 construct: made in house; host or cells: COS-7 cells, transient transfection; crude protein extract after sonication
T1 sequence (Q9Y5L3 1-495): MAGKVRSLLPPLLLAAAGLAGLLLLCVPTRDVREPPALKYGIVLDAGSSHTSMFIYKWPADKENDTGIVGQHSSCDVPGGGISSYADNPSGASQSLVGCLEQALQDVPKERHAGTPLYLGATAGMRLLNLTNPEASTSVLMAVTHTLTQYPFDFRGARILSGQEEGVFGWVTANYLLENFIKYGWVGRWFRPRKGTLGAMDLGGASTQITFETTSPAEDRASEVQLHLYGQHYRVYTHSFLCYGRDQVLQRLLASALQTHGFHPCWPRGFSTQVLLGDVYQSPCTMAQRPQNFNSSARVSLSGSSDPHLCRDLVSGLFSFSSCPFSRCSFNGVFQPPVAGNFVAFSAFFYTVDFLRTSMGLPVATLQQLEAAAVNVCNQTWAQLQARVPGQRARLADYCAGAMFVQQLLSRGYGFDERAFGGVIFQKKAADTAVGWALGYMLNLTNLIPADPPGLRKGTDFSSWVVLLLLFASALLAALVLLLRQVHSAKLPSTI

NTPDase3 mRNA = NTPDase3 mRNA expression in mice islets by real time qPCR; format: cell-based
Method: Freshly isolated mice islets were incubated in KRBB at 37°C with glucose (3 mM). After 45 min, these islets were treated with test compounds in KRBB at 37°C for 3 h, in the presence of stimulatory glucose concentration. Once the incubation was complete, supernatant was removed carefully, and RNA was extracted from these islets.
Total RNA was extracted using TRIzol reagent, according to manufacturer’s instruction. The concentration of isolated RNA was quantified by using Lvis plate method (FLUOstar Omega, BMG Labtech, Ortenberg, Germany). This RNA was then reverse transcribed to cDNA in a total reaction volume of 20 µl. Briefly, a reaction mixture containing RNA (1 µg) and oligo-dT (20 μM, 1 µl) was prepared and volume was adjusted to 12 µl with nuclease free water. The prepared mixture was incubated at 65°C for 5 min and then immediately chilled on ice. Afterward, 8 µl of master mix containing 5X reaction buffer (4 µl), rnase inhibitor (1 µl), dNTPs mix (10 mM, 2 µl) and reverse transcriptase (1 µl) was added to above sample. After gentle pipetting, sample was run under following conditions: 25°C for 5 min, 42°C for 70 min and 70°C for 5 min. Once the cDNA was synthesized, real time quantitative PCR was conducted by using PikoReal 96 Real-Time PCR system (Thermo Scientific, Vantaa, Finland). […] Relative expression was determined by normalization to β actin mRNA by ΔΔCT method.

mice pancreatic islets = assay: Glucose stimulated insulin secretion in isolated mice islets (ELISA); format: cell-based, BALB/c mice; conditions: basal glucose 3 mM

| SMILES | Mode of inhibition of h-NTPDase2 (h-NTPDase2) | Effect on expression level of β-actin (housekeeping gene) (NTPDase3 mRNA; mice islets treated 3 h) | Effect on NTPDase3 gene expression (mRNA) (NTPDase3 mRNA; mice islets treated 3 h at stimulatory glucose, normalized to β actin, versus control) | Effect on insulin secretion at basal glucose level (mice pancreatic islets) |
| --- | --- | --- | --- | --- |
| COc1ccc(OC)c(NC(=S)N/N=C2\C(=O)Nc3ccccc32)c1 [8j, (Z)-N-(2,5-dimethoxyphenyl)-2-(2-oxoindolin-3-ylidene)hydrazine-1-carbothioamide] | competitive |  |  |  |
| CCNC(=S)N/N=C1\C(=O)Nc2ccccc21 [8m, (Z)-N-ethyl-2-(2-oxoindolin-3-ylidene)hydrazine-1-carbothioamide] |  | not affected | no significant effect (p > 0.05); also recorded: had not suppressed the gene expression of NTPDase3; also recorded: without affecting the NTPDase3 gene expression | no effect on insulin secretion; also recorded: did not produce any significant effect |
